Results published in article PMC8025677 (Cell, 2020).
Where two headings read alike, the source gives them in different places.

What was measured:
[1] = test system: electrically evoked 5-HT release in dorsal striatum slices; set-up: species or system mouse
[2] = biological target: hSERT (Homo sapiens, UniProt P31645); assay: oscillating stimulus transporter assay; assay type: cell-based
[3] = biological target: iSeroSnFR; assay type: binding, Thermoanaerobacter sp. X513; conditions: for Kd: read-out: apparent Kd, pH 7.4
[4] = biological target: iAChSnFR (early version; iAChSnFR0.6 in Figure S2A); conditions: n = 3

Chain of hSERT (P31645 whole entry): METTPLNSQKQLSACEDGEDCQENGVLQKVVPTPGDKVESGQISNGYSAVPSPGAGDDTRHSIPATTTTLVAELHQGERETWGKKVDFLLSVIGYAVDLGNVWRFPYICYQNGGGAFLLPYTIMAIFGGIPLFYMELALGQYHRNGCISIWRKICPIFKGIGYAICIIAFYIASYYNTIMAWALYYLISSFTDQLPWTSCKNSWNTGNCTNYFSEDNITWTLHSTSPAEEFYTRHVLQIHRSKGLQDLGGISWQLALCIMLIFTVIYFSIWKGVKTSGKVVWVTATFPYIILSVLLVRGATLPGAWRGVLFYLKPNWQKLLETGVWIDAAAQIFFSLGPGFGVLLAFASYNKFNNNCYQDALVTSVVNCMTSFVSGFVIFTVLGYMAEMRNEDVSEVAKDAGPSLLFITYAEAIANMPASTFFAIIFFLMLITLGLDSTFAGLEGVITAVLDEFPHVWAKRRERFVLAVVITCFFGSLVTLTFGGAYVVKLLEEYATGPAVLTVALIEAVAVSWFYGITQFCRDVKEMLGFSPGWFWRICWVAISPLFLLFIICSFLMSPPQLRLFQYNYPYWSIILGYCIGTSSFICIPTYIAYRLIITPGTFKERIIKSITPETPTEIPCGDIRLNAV

**Q.** NC1=N[C@H](O)[C@H]2[C@H]3O[C@]4(O)O[C@@H]([C@@H](O)[C@@]2(N1)[C@@H]4O)[C@]3(O)CO [tetrodotoxin] was tested. Which “effect on electrically evoked fluorescence transients” value [1] did it give?
**A.** Its value is “completely abolished”.

**Q.** CCCCCCCCCCCCCC(=O)O[C@@H]1[C@@H](C)[C@@]2(O)[C@@H](C=C(CO)C[C@]3(O)C(=O)C(C)=C[C@@H]23)[C@@H]2C(C)(C)[C@]12OC(C)=O [PMA, phorbol 12-myristate 13-acetate] was tested. Which “effect on 5-HT transport rate” value ([2]; 400 nM) did it give?
**A.** The value was “slow decrement in transport rate over ~40 minutes”.

**Q.** How did the Kd [3] turn out when NCCc1ccc(O)c(O)c1 [dopamine] was run?
**A.** Its Kd is 5600 µM.

**Q.** What does the source list for N#Cc1ccc2[nH]cc(CCCCN3CCN(c4ccc5oc(C(N)=O)cc5c4)CC3)c2c1 [vilazodone]?
**A.** effect on 5-HT transport ([2]; concentration not given): caused transport function to rapidly disappear; recovery of transport after washout ([2]; washouts of >20 minutes): did not return to baseline

**Q.** For COC(=O)[C@H]1[C@@H](OC(=O)c2ccccc2)C[C@@H]2CC[C@H]1N2C [cocaine], which “effect on 5-HT transport” value [2] is on record?
**A.** Its value is “reduced”.

**Q.** NCCc1c[nH]c2ccccc12 [tryptamine] was tested. Which “times weaker affinity than 5-HT” value ([3]; purified iSeroSnFR) did it give?
**A.** The value was 8 times.

**Q.** And the Kd ([3]; purified iSeroSnFR 100 nM)?
**A.** Its Kd is 2400 µM.

**Q.** Which “enhancement in 5-HT efflux” value [2] does the source give for CNC(C)Cc1ccc2c(c1)OCO2 (stereo not shown) [MDMA, 3,4-methyl enedioxy methamphetamine] here?
**A.** Its value is 2 fold.

**Q.** With NCCc1c[nH]c2ccc(O)cc12 [5-HT, serotonin (5-hydroxytryptamine)] as the molecule, how does the Kd [4] read?
**A.** Its Kd is over 1000 µM.
